Assay results taken from US5948780A, “Method for treating and preventing heart failure and ventricular dilatation” (priority 1997, dated 1999).

Experiments:
cardiac myocytes = test: cardiac myocyte length after pacing, first study; assay type: in vivo, pig
Method: A study was performed in four pigs in which atrial pacemakers were implanted. Heart failure was induced by chronic rapid pacing (i.e., increasing heart rate to 240 beats per minute). Echocardiographic assessment of cardiac function, chamber dimensions, and structure was performed prior to the initiation of pacing, and following 1 and 3 weeks of rapid pacing. Previous studies have shown that 1 week of rapid atrial pacing represents an early timepoint in the development of heart failure in which cardiac dilation is evident, but there is no significant effect on left ventricular (LV) systolic function. […]
MMP-Inhibitor efficacy in treating heart failure was defined as stopping cardiac dilation, preserving cardiac function, and reducing cardiac myocyte lengthening. Cardiac dilation was assessed by measuring changes in the end-diastolic dimension between the left ventricular free wall and left ventricular septum. Cardiac function was also measured using m-mode echocardiography by calculating the percent fraction shortening, or in other words, how well the left ventricle of the heart pumped blood into the circulation. Cellular remodelling was measured by isolating cardiac myocytes using a standard collagenase digestion procedure and measuring cell length using digital photomicroscopy. […]

isolated LV myocytes = test: isolated myocyte contractile function with pacing induced congestive heart failure (Table IV); settings: Rapid Pacing + MMPi, 20 mg/kg QD
Method: Following completion of the 21-day protocol, a final set of LV function measurements were performed and plasma collected. Following steady-state LV function measurements, 35 cc of blood was drawn from the arterial access port into chilled tubes containing EDTA (1.5 mg/mL). The blood samples were immediately centrifuged (2000 g, 10 min, 4° C.), the plasma decanted into separate tubes, frozen in a dry ice/methanol bath, and stored at -80° C. until the time of assay. The animals were then anesthetized as described in the preceding section, a sternotomy performed, and the heart quickly extirpated and placed in a phosphate buffered ice slush. The great vessels, atria, and right ventricle were carefully trimmed away, and the LV weighed. The region of the LV free wall incorporating the circumflex artery (5×5 cm) was excised and prepared for myocyte isolation. The region of the left ventricular free wall comprising the left anterior descending artery (3×5 cm) was cannulated and prepared for perfusion fixation.
Myocytes were isolated from the LV free wall as follows. The left circumflex coronary artery was perfused with a collagenase solution (0.5 mg/mL, Worthington, type II; 146 U/mg) for 35 minutes. The tissue was then minced into 2 mm sections and gently agitated. After 15 minutes, the supernatant was removed, filtered, and the cells allowed to settle. The myocyte pellet (5×10^4 cells/mL) was then resuspended in standard cell culture media (M199, Gibco Laboratories, Grand Island, N.Y.). […] Viable myocytes were defined as those cells which retained a rod shape, were calcium tolerant, responded to electrical stimulation, and excluded trypan blue. Isolated myocyte function was examined using a thermostatically controlled chamber (37° C.) containing a volume of 2.5 mL and two stimulating platinum electrodes to image the isolated myocytes on an inverted microscope (Axiovert IM35, Zeiss Inc., Germany). A 20× long working distance Hoffmann Modulation Contrast objective (Modulation Optics Inc., Greenvale, N.Y.) was used to image the myocytes. Myocyte contractions were elicited by field stimulating the tissue chamber at 1 Hz (S11, Grass Instruments, Quincy, Mass.) using current pulses of 5 msec duration and voltages 10% above contraction threshold. Myocyte motion signals were captured and input through an edge detector system (Crescent Electronics, Sandy, Utah). The distance between the left and right myocyte edges was converted into a voltage signal, digitized, and input to a computer (80386; ZBV2526, Zenith Data Systems, St. Joseph, Mich.) for analysis. Parameters computed from the digitized contraction profiles include percent shortening, velocity of shortening, velocity of relengthening, time to peak contraction, and duration of contraction.
Indices of LV and myocyte function were compared between the three treatment groups using multi-way analysis of variance (ANOVA). For comparisons of LV function with each week of pacing, an ANOVA for repeated measures was used. […] For comparisons of neurohormonal profiles, the Student-Neuman-Kuells test was employed. The categorical scores obtained from the histomorphometric studies were compared between groups using the Chi-Square analysis. All statistical procedures were performed using the BMDP statistical software package (BMDP Statistical Software Inc., Los Angeles, Calif.). […] Values of p<0.05 were considered to be statistically significant.

[1] = tested on: MI-rat (coronary artery ligation) heart failure model; test: ischemic model of heart failure (MI-rat), Compound A dose-response; assay type: in vivo; design: LVV at LVEDP: unit not given here; settings: for LVEDP / LVV at LVEDP / dp/dt MAX: 6 weeks
[2] = tested on: pacing-induced heart failure model; test: pacing-induced heart failure in pigs, first study (echocardiography); assay type: in vivo, pig
Method: A study was performed in four pigs in which atrial pacemakers were implanted. Heart failure was induced by chronic rapid pacing (i.e., increasing heart rate to 240 beats per minute). Echocardiographic assessment of cardiac function, chamber dimensions, and structure was performed prior to the initiation of pacing, and following 1 and 3 weeks of rapid pacing. Previous studies have shown that 1 week of rapid atrial pacing represents an early timepoint in the development of heart failure in which cardiac dilation is evident, but there is no significant effect on left ventricular (LV) systolic function. Two pigs were dosed with the MMP-inhibitor 2-(4'-bromobiphenyl-4-sulfonylamino)-3-methylbutyric acid (Compound A) (20 mg/kg/day) which was given once a day orally. This dosage was selected based upon pharmacokinetic data in which this dosage regimen would provide minimal steady state plasma levels of 10 μM Compound A. One pig dosed with Compound A was sacrificed at the end of 1 week of pacing, and the second pig was paced for a full 3 weeks. At the end of 3 weeks, pigs were euthanized and the heart removed. Cardiac myocytes were isolated from a portion of the left ventricle to measure changes in cell length.
MMP-Inhibitor efficacy in treating heart failure was defined as stopping cardiac dilation, preserving cardiac function, and reducing cardiac myocyte lengthening. Cardiac dilation was assessed by measuring changes in the end-diastolic dimension between the left ventricular free wall and left ventricular septum. Cardiac function was also measured using m-mode echocardiography by calculating the percent fraction shortening, or in other words, how well the left ventricle of the heart pumped blood into the circulation. Cellular remodelling was measured by isolating cardiac myocytes using a standard collagenase digestion procedure and measuring cell length using digital photomicroscopy. To confirm plasma drug levels of the MMP-inhibitor, plasma was collected prior to dosing on each day of the pacing protocol.

[3] = 20 mg/kg/day oral, paced 21 days
[4] = 20 mg/kg/day oral, paced 7 days
[5] = Paced + Compound A group, baseline

**Q.** `CC(C)C(NS(=O)(=O)c1ccc(-c2ccc(Br)cc2)cc1)C(=O)O` (stereo not shown) [Compound A, 2-(4'-bromobiphenyl-4-sulfonylamino)-3-methylbutyric acid] was tested. Which “Cardiac Myocyte Length” value (cardiac myocytes; [3]) did it give?
**A.** 170 μms

**Q.** What about the “increase in cardiac myocyte cell length” value (cardiac myocytes; 3 weeks of pacing) of the same compound?
**A.** 19%

**Q.** And the “Percent Shortening” value (isolated LV myocytes; 7 mM calcium)?
**A.** 5.6 ± 0.5%

**Q.** And the “Relengthening Velocity” value (isolated LV myocytes; 7 mM calcium)?
**A.** 78 ± 5 μm/s

**Q.** What about the “Resting Length” value (isolated LV myocytes; 7 mM calcium) of the same compound?
**A.** 156 ± 5 μm

**Q.** And the “Shortening Velocity” value (isolated LV myocytes; 7 mM calcium)?
**A.** 84 ± 7 μm/s

**Q.** And the “Time to 50% Relaxation” value (isolated LV myocytes; 7 mM calcium)?
**A.** 102 ± 5 ms

**Q.** What about the “Time to Peak Contraction” value (isolated LV myocytes; 7 mM calcium) of the same compound?
**A.** 240 ± 3 ms

**Q.** And the “Total Duration” value (isolated LV myocytes; 7 mM calcium)?
**A.** 476 ± 10 ms

**Q.** And the “Percent Shortening” value (isolated LV myocytes; […] nM isoproterenol)?
**A.** 5.1 ± 0.5%

**Q.** What about the “Relengthening Velocity” value (isolated LV myocytes; […] nM isoproterenol) of the same compound?
**A.** 80 ± 11 μm/s

**Q.** What about the “Resting Length” value (isolated LV myocytes; […] nM isoproterenol) of the same compound?
**A.** 161 ± 3 μm

**Q.** What about the “Shortening Velocity” value (isolated LV myocytes; […] nM isoproterenol) of the same compound?
**A.** 108 ± 11 μm/s

**Q.** And the “Time to 50% Relaxation” value (isolated LV myocytes; […] nM isoproterenol)?
**A.** 104 ± 6 ms

**Q.** And the “Time to Peak Contraction” value (isolated LV myocytes; […] nM isoproterenol)?
**A.** 175 ± 2 ms

**Q.** What about the “Total Duration” value (isolated LV myocytes; […] nM isoproterenol) of the same compound?
**A.** 433 ± 12 ms

**Q.** What about the “Percent Shortening” value (isolated LV myocytes; baseline) of the same compound?
**A.** 2.2 ± 0.1%

**Q.** And the “Relengthening Velocity” value (isolated LV myocytes; baseline)?
**A.** 26 ± 2 μm/s

**Q.** What about the “Resting Length” value (isolated LV myocytes; baseline) of the same compound?
**A.** 169 ± 4 μm

**Q.** What about the “Shortening Velocity” value (isolated LV myocytes; baseline) of the same compound?
**A.** 31 ± 2 μm/s

**Q.** What about the “Time to 50% Relaxation” value (isolated LV myocytes; baseline) of the same compound?
**A.** 131 ± 5 ms

**Q.** And the “Time to Peak Contraction” value (isolated LV myocytes; baseline)?
**A.** 244 ± 7 ms

**Q.** And the “Total Duration” value (isolated LV myocytes; baseline)?
**A.** 498 ± 9 ms

**Q.** What about the LVEDP ([1]; 0.005 mg/kg/day in chow) of the same compound?
**A.** 20 ± 4 mm Hg

**Q.** And the “LVV at LVEDP” value ([1]; 0.005 mg/kg/day in chow)?
**A.** 650 ± 96

**Q.** And the “dp/dt MAX” value ([1]; 0.005 mg/kg/day in chow)?
**A.** 5900 ± 474 mm Hg/sec

**Q.** What about the LVEDP ([1]; 0.05 mg/kg/day in chow) of the same compound?
**A.** 16 ± 3 mm Hg

**Q.** And the “LVV at LVEDP” value ([1]; 0.05 mg/kg/day in chow)?
**A.** 622 ± 72

**Q.** What about the “dp/dt MAX” value ([1]; 0.05 mg/kg/day in chow) of the same compound?
**A.** 6553 ± 331 mm Hg/sec

**Q.** What about the LVEDP ([1]; 0.5 mg/kg/day in chow) of the same compound?
**A.** 20 ± 3 mm Hg

**Q.** What about the “LVV at LVEDP” value ([1]; 0.5 mg/kg/day in chow) of the same compound?
**A.** 751 ± 65

**Q.** And the “dp/dt MAX” value ([1]; 0.5 mg/kg/day in chow)?
**A.** 5997 ± 351 mm Hg/sec

**Q.** And the LVEDP ([1]; 5 mg/kg/day in chow)?
**A.** 16 ± 3 mm Hg

**Q.** And the “LVV at LVEDP” value ([1]; 5 mg/kg/day in chow)?
**A.** 647 ± 66

**Q.** And the “dp/dt MAX” value ([1]; 5 mg/kg/day in chow)?
**A.** 6357 mm Hg/sec

**Q.** What about the “LV function as measured by dP/dt MAX” value ([1]; 3 highest doses) of the same compound?
**A.** significantly improved LV function

**Q.** What about the LV dilation ([1]; every dose (0.005-5 mg/kg/day in chow)) of the same compound?
**A.** significantly reduced LV dilation at every dose

**Q.** And the “End-Diastolic Dimension” value [2, 4]?
**A.** 3.6 ± 0.2 cm

**Q.** And the “Fractional Shortening” value [2, 4]?
**A.** 33 ± 3%

**Q.** And the “Heart Rate” value [2, 4]?
**A.** 120 ± 3 BPM

**Q.** And the “LV Stress” value [2, 4]?
**A.** 50 ± 4 g/cm2

**Q.** What about the “End-Diastolic Dimension” value [2, 3] of the same compound?
**A.** 4.3 cm

**Q.** And the “Fractional Shortening” value [2, 3]?
**A.** 22%

**Q.** What about the “decrease in cardiac function (fractional shortening)” value ([2]; 3 weeks of pacing) of the same compound?
**A.** 39%

**Q.** What about the “increase in cardiac dilation (left ventricular end-diastolic dimension)” value ([2]; 3 weeks of pacing) of the same compound?
**A.** 26%

**Q.** What about the “End-Diastolic Dimension” value [2, 5] of the same compound?
**A.** 3.4 ± 0.2 cm

**Q.** And the “Fractional Shortening” value [2, 5]?
**A.** 36 ± 3%

**Q.** And the “Heart Rate” value [2, 5]?
**A.** 105 ± 4 BPM

**Q.** What about the “LV Stress” value [2, 5] of the same compound?
**A.** 46 ± 3 g/cm2

**Q.** What about the “left ventricular end-diastolic volume versus control values” ([2]; first week of pacing) of the same compound?
**A.** remained unchanged from control values

**Q.** And the “left ventricular wall stress versus control values” ([2]; first week of pacing)?
**A.** remained unchanged from control values

**Q.** What about the “fractional shortening, change” value ([2]; following 1 week of pacing) of the same compound?
**A.** unchanged
